Test results: EP0698347B1, “Food composition containing reuterin” (BIOGAIA BIOLOGICS AB, priority 1987, dated 1988)

Legend:
Type in all cases: cell-based
[1] = Antimicrobial activity of pure commercial preparations; conditions: concentrations as high as 0.125M
From the text: Reuterin Is a Product of Glycerol Fermentation. Reuterin is a new product associated with the same type of heterolactic fermentation of glycerol that occurs in other Lactobacillus species. Reuterin can be isolated and identified as a product of glycerol fermentation by L. reuteri using HPLC.

E. coli [2] = test: Co-culture of E. coli with and without L. reuteri 1063 on various substrates (Table 1); parameters: % Inhibition: concentration or dose not given beside the values; conditions: for E. coli (CFU/ml) after 6 hours: substrate 20 mM (C6, C5) or 40 mM (C3), inoculum 5 x 10^6 CFU per ml E. coli; for % Inhibition: E. coli with versus without L. reuteri 1063 on the substrate, 6 hours
Experimental: (§1) Conditions under which reuterin is produced have been determined. Reuterin is not produced under aerobic conditions (atmospheric oxygen concentration) but under reduced oxygen tension. It is produced when L. reuteri is cultured anaerobically (or semi-anaerobically in still culture) in the MIC assay medium described above containing 20-500 mM glycerol or glyceraldehyde in place of glucose as the major carbon and energy source. […] Twenty other substances, including hexoses, hexitols, pentoses, pentitols, disaccharides and a variety of phosphorylated and non-phosphorylated C3-substances, were tested for their ability to support reuterin production. […] The medium, containing a substrate at 20 mM (C6 and C5 substrates) or 40 mM (C3 substrates) concentrations, was inoculated with 5 x 10^6 colony-forming units (CFU) per ml E. coli with and without L. reuteri. Only glycerol and glyceraldehyde yielded reuterin. Also, réuterin production from glycerol is inhibited when glucose or another growth substrate is included in the production medium. The results shown in Table 2 indicate the percent inhibition in viable count of a 6.7 x 10^7 CFU per ml E. coli inoculum by supernatant fractions of L. reuteri grown on various indicated substrates at 40 mM concentrations.

E. coli [3] = test: Inhibition of E. coli by supernatant fractions of L. reuteri grown on various substrates (Table 2); conditions: for % Inhibition: percent inhibition in viable count of 6.7 x 10^7 CFU per ml E. coli inoculum by supernatant fraction, substrate 40 mM; for Growth of E. coli presence of centrifuged culture medium CFU/ml after 6 hours: supernatant fraction of L. reuteri grown on the substrate at 40 mM, inoculum 6.7 x 10^7 CFU per ml E. coli
Experimental: as §1

Row | Molecule | antimicrobial activity [1] | E. coli (CFU/ml) after 6 hours (E. coli [2]; Addition of L. reuteri 1063: +) | E. coli (CFU/ml) after 6 hours (E. coli [2]; Addition of L. reuteri 1063: -) | % Inhibition (E. coli [2]) | % Inhibition (E. coli [3]) | Growth of E. coli presence of centrifuged culture medium CFU/ml after 6 hours (E. coli [3])
1 | OCCCO [1,3-propanediol] | essentially devoid of antimicrobial activity | – | – | – | – | –
2 | OC[C@@H](O)C(O)[C@H](O)CO [Arabitol] | – | 2.9x10^6 CFU/ml | 2.7x10^6 CFU/ml | 0% | – | –
3 | O=C(CO)COP(=O)(O)O [Dihydroxyacetone-P] | – | 4.1x10^6 CFU/ml | 3.4x10^6 CFU/ml | 0% | 0% | 3.7x10^9 CFU/ml
4 | O=C(CO)[C@@H](O)[C@H](O)[C@H](O)CO [Fructose] | – | 3.0x10^8 CFU/ml | 2.1x10^8 CFU/ml | 0% | – | –
5 | O=C(O)[C@H](O)[C@@H](O)[C@H](O)[C@H](O)CO [Gluconate] | – | 3.2x10^8 CFU/ml | 3.5x10^8 CFU/ml | 0% | – | –
6 | O=CC(O)CO (centres unmarked) [Glyceraldehyde] | – | 3.2x10^4 CFU/ml | 2.8x10^6 CFU/ml | 99% | 98.9% | 6.1x10^5 CFU/ml
7 | OC[C@@H](O)[C@@H](O)[C@H](O)[C@H](O)CO [Mannitol] | – | 2.7x10^8 CFU/ml | 2.3x10^8 CFU/ml | 0% | – | –
8 | C=C(OP(=O)(O)O)C(=O)O [Phosphoenolpyruvate] | – | – | – | – | 0% | 3.7x10^9 CFU/ml
9 | CC(=O)C(=O)O [Pyruvate] | – | – | – | – | 0% | 4.1x10^9 CFU/ml
10 | OC[C@@H](O)[C@@H](O)[C@@H](O)CO [Ribitol] | – | 4.9x10^6 CFU/ml | 5.7x10^6 CFU/ml | 0% | – | –
11 | OC[C@@H](O)[C@@H](O)[C@H](O)[C@@H](O)CO [Sorbitol] | – | 1.9x10^8 CFU/ml | 2.1x10^8 CFU/ml | 0% | – | –
12 | O=C[C@H](O)[C@@H](O)[C@H](O)CO [Xylose] | – | 6.9x10^7 CFU/ml | 6.7x10^7 CFU/ml | 0% | – | –
13 | O=P(O)(O)OC(CO)CO [β-Glycerol-P] | – | 6.5x10^6 CFU/ml | 5.1x10^6 CFU/ml | 0% | 0% | 3.2x10^9 CFU/ml
14 | O=C(O)CCO [β-hydroxypropionic acid] | essentially devoid of antimicrobial activity | – | – | – | – | –
15 | Phosphoglycerate | – | – | – | – | 0% | 3.3x10^9 CFU/ml
